Here are results for 37 molecules from ChEMBL document CHEMBL5046315, “CRCM5484: A BET-BDII Selective Compound with Differential Anti-leukemic Drug Modulation” (J Med Chem, 2022).

The target in test [1] is T1, Bromodomain-containing protein 3 (Homo sapiens, UniProt Q15059). The experiment in a line: Inhibition of BRD3-BD2 (unknown origin) incubated for 6 hrs by HTRF method.
In test [2] the target is T1, Bromodomain-containing protein 3. In words: Inhibition of BRD3-BD1 domain (unknown origin) incubated for 6 hrs by HTRF method.
Test [3] is filed under the species Homo sapiens. The experiment in a line: Selectivity ratio of IC50 for BRD3-BD1 (unknown origin) to IC50 for BRD3-BD2 (unknown origin).
Test [4] addresses T2, Bromodomain-containing protein 4 (Homo sapiens, UniProt O60885). The experiment in a line: Inhibition of BRD4-BD2 (unknown origin) incubated for 6 hrs by HTRF method.
The species named for test [5] is Homo sapiens. The experiment in a line: Selectivity ratio of IC50 for BRD4-BD1 (unknown origin) to IC50 for BRD4-BD2 (unknown origin).
Test [6] addresses T2, Bromodomain-containing protein 4. In words: Inhibition of BRD4-BD1 (unknown origin) incubated for 6 hrs by HTRF method.
The target is the same in test [7]. In words: Inhibition of BRD4-BD1 (unknown origin) (N44 to E168 residues) expressed in bacterial expression system assessed as dissociation constant by BROMOscan method.
The target is the same in test [8]. In words: Inhibition of BRD4-BD2 (unknown origin) (K333 to E460 residues) expressed in bacterial system assessed as dissociation constant by BROMOscan method.
For test [9], the system named is MOLM-14. The experiment in a line: Downregulation of Myc expression in human MOLM-14 cells incubated for 2 hrs by RT-PCR analysis. Format: functional, cell-based. As to conditions: dose 5.0 µM.
Test [10] deals with NB-4. The experiment in a line: Cytotoxicity against human NB-4 cells assessed as reduction in cell viability incubated for 72 hrs. Format: functional, cell-based. To be noted: NB-4, 72 h.
Test [11] has as its system K562. In words: Cytotoxicity against human K562 cells assessed as reduction in cell viability incubated for 72 hrs. To be noted: K562, 72 h. Format: functional, cell-based.
Test [12] relates to CCRF-CEM. In words: Cytotoxicity against human CCRF-CEM cells assessed as reduction in cell viability incubated for 72 hrs. The test is classed as functional, cell-based.
Test [13] concerns MOLM-14. In words: cells. As to conditions: Homo sapiens, MOLM-14, 72 h.
Description: Cytotoxicity against human MOLM-14 cells assessed as reduction in cell viability incubated for 72 hrs
For test [14], the target named is T3, Bromodomain-containing protein 2 (Homo sapiens, UniProt P25440). The experiment in a line: Inhibition of BRD2-BD2 (unknown origin) incubated for 6 hrs by HTRF method.
Test [15] has as its target T3, Bromodomain-containing protein 2. The experiment in a line: Binding affinity to human partial length BRD2-BD2 (E348 to D455) expressed in bacterial system assessed as dissociation constant by BROMOscan method.
Test [16] has as its target T1, Bromodomain-containing protein 3. In words: Binding affinity to human partial length BRD3-BD2 (G306 to P416) expressed in bacterial system assessed as dissociation constant by BROMOscan method.
The target in test [17] is T2, Bromodomain-containing protein 4. In words: Binding affinity to human partial length BRD4-BD2 (K333 to E460 residues) expressed in bacterial system assessed as dissociation constant by BROMOscan method.
Test [18] deals with T1, Bromodomain-containing protein 3. In words: Inhibition of BRD3-BD1 (unknown origin) assessed as dissociation constant by TR-FRET method.
The subject of test [19] is K562. The experiment in a line: Inhibition of IFNgamma induced MHC-1 expression in human K562 cells treated for 48 hrs by flow cytometric analysis. The test is classed as functional, cell-based. To be noted: dose 0.2-20 µM.

Calls of active or inactive are those of the source. The rule behind the calls is not given here. Where only a bound is given, the exact number is not on record here.

T1 sequence (Q15059 whole entry, the tested form may be a part): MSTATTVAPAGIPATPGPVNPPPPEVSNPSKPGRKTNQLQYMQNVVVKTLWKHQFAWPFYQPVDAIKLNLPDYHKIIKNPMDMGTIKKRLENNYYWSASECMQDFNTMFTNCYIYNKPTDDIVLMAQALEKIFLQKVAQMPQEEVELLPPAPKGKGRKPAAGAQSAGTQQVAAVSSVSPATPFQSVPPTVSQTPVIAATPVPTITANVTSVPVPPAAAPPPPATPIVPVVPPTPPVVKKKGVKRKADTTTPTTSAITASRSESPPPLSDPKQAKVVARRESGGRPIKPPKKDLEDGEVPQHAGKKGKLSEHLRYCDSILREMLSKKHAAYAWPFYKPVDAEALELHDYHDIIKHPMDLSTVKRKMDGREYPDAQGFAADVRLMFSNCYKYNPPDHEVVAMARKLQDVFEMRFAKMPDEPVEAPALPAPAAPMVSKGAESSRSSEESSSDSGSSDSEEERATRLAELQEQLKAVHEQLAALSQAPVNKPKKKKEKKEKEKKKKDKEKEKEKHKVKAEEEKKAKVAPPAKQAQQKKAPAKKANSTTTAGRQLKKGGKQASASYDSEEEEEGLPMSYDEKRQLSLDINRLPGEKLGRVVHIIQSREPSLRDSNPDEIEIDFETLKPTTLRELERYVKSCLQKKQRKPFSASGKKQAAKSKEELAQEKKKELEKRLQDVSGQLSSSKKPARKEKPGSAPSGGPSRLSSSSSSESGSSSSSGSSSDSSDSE
T3 sequence (P25440 whole entry): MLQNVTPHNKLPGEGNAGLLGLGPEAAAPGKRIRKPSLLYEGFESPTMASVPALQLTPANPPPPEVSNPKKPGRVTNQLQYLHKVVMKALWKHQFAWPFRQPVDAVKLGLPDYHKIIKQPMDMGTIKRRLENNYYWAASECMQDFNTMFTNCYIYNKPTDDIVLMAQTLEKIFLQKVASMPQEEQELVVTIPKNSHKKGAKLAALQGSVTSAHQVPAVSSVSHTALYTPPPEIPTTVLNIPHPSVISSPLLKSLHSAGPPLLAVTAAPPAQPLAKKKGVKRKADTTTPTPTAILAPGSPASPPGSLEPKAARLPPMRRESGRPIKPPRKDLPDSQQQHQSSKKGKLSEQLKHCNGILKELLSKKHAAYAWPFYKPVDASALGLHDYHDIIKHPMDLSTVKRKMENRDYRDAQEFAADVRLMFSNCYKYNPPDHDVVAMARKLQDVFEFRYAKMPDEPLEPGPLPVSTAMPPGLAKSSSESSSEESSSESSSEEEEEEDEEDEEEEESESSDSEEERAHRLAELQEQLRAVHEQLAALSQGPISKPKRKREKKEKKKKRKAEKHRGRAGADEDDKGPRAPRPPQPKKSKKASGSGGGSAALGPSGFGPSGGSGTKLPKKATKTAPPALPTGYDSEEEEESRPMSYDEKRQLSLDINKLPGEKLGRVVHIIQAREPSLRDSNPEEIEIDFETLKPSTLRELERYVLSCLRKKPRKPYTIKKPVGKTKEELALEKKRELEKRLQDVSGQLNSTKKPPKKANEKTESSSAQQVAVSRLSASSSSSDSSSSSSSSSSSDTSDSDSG

In the case of `CC(=O)c1ccc(NC(=O)CSc2nc3sc4c(c3c(=O)n2Cc2ccco2)CCN(C(C)=O)C4)cc1`, the IC50 in test [1] was 320 nM; in test [2] it was 1500 nM. In addition, the Ratio IC50 in test [3] was 4.
The matching figures for `CSc1cccc(NC(=O)CSc2nc3sc4c(c3c(=O)n2Cc2ccco2)CCN(C(C)=O)C4)c1`: 410 nM, 6500 nM and 11.
Consider `COc1ccccc1NC(=O)CSc1nc2sc3c(c2c(=O)n1Cc1ccco1)CCN(C(C)=O)C3`, for which half-maximal inhibition in test [1] (IC50) was put at 72 nM. Further, the Ratio IC50 in test [3] amounted to 31.
`CC(=O)N1CCc2c(sc3nc(SCC(=O)Nc4ccc(C)c(F)c4)n(Cc4ccco4)c(=O)c23)C1`: the IC50 was 210 nM in [1] and 4200 nM in test [2]. Moreover, the Ratio IC50 in [3] came out at 31.
Molecule `Cc1cc(F)ccc1NS(=O)(=O)c1cc(-c2c(C)noc2C)ccc1C` showed an IC50 in test [4] of 1500 nM. Moreover, in test [5], the Ratio IC50 was determined as 4.9.
`CC(=O)N1CCc2c(sc3nc(SCC(=O)Nc4ccc(Cl)cc4)n(Cc4ccco4)c(=O)c23)C1`: the IC50 turned out to be 530 nM in test [1] and 4500 nM in test [2]. Further, the Ratio IC50 in test [3] was found to be 8.
For `Cc1ccc(-c2c(C)noc2C)cc1S(=O)(=O)Nc1cccc(C)c1C`, in [4], the IC50 was 900 nM. Further, in test [5], the Ratio IC50 is 12.
As for `Cc1nn(CCO)c(C)c1-c1c(C)c(-c2ccc(O)cc2)nc(N)c1C#N`, the figures for the IC50 in [6] and in test [4] were 8200 nM and 900 nM, respectively. Besides, the Ratio IC50 in test [5] was 9.
As for `CC(=O)N1CCc2c(sc3nc(SCC(=O)Nc4ccccc4)n(-c4ccccc4)c(=O)c23)C1`, the IC50 was 5500 nM in test [1] and more than 25000 nM in test [2]. The Ratio IC50 in [3] was more than 5.
In turn, `CCC(=O)N1CCc2c(sc3[nH]c(=O)n(C4CCCCC4)c(=O)c23)C1` showed an IC50 in test [2] of more than 25000 nM.
For the molecule `CCOc1ccccc1NC(=O)CSc1nc2sc3c(c2c(=O)n1Cc1ccco1)CCN(C(C)=O)C3`, the figures for the IC50 in [1] and in [2] were 150 nM and 4400 nM, respectively. For the same molecule, in [3], the Ratio IC50 stood at 23.
As for `CC(=O)c1cccc(NC(=O)CSc2nc3sc4c(c3c(=O)n2Cc2ccco2)CCN(C(C)=O)C4)c1`, the IC50 in test [1] is 170 nM; in [2], 4100 nM. The Ratio IC50 in [3] turned out to be 9.
As for `CC(=O)N1CCc2c(sc3nc(SCC(=O)Nc4cc(F)ccc4F)n(Cc4ccco4)c(=O)c23)C1`, the results for the IC50 in [1] and in test [2] were 170 nM and 4500 nM, respectively. For the same molecule, in test [3], the Ratio IC50 was determined as 24.
Taken in the same sequence, the figures for `CC(=O)N1CCc2c(sc3nc(SCC(=O)Nc4cc(Cl)ccc4C)n(-c4ccccc4)c(=O)c23)C1` were 6300 nM, more than 25000 nM and more than 4.
The matching figures for `CC(=O)N1CCc2c(sc3nc(SCC(=O)Nc4cccc(Cl)c4)n(Cc4ccco4)c(=O)c23)C1`: 490 nM, 3100 nM and 9.
The matching figures for `CC(=O)N1CCc2c(sc3nc(SCC(=O)Nc4ccc(C)cc4)n(Cc4ccco4)c(=O)c23)C1`: 630 nM, 3200 nM and 5.
In the case of `CC(=O)N1CCc2c(sc3nc(SCC(=O)Nc4cc(Cl)ccc4C)n(-c4ccc(C)o4)c(=O)c23)C1`, the IC50 is 410 nM in test [1] and 7800 nM in [2]. Further, the Ratio IC50 in [3] was 19.
The matching figures for `CC(=O)N1CCc2c(sc3nc(SCC(=O)Nc4ccccc4)n(Cc4ccco4)c(=O)c23)C1`: 140 nM, 14000 nM and 100.
As for `CC(=O)N1c2ccc(C3=CCNCC3)cc2N(Cc2ccccc2CO)C[C@@H]1C1CC1`, the Kd in test [7] was found to be 3000 nM; in [8], 63 nM.
As to `COc1cc(OC)c2c(=O)[nH]c(-c3cc(C)c(OCCO)c(C)c3)nc2c1` [APABETALONE], the Activity result in [9] is “Dose-Dependent Effect”. Further, the EC50 is more than 5000 nM in test [10], more than 5000 nM in test [11], more than 5000 nM in test [12] and 6700 nM in test [13].
With `CC(=O)N1CCc2c(sc3nc(SCC(=O)Nc4ccccc4F)n(Cc4ccco4)c(=O)c23)C1`, the IC50 in [1] worked out at 210 nM; in test [2] it was 7500 nM. For the same molecule, in test [3], the Ratio IC50 was 20.
The matching figures for `CCOc1ccc(NC(=O)CSc2nc3sc4c(c3c(=O)n2Cc2ccco2)CCN(C(C)=O)C4)cc1`: 880 nM, 1300 nM and 4.
Consider `CC(=O)N1CCc2c(sc3nc(SCC(=O)Nc4cc(Cl)ccc4C)n(Cc4ccco4)c(=O)c23)C1`, for which the IC50 in test [4] was found to be 900 nM; in test [1] it was 85 nM; in test [14], 120 nM; in test [15], 2600 nM; in test [16], 325 nM; in test [17], 775 nM. This molecule also displayed an IC50 in test [2] of 8500 nM. Moreover, the Ratio IC50 in test [5] was 4.4.
In the case of `CC(=O)Nc1c(F)cc(C(=O)N[C@H]2CC[C@H](O)CC2)cc1O[C@@H](C)c1ccccc1` [GSK046], the IC50 in test [18] was determined as 3600 nM. Also, the Activity result in test [9] was “Dose-Dependent Effect”. For the same molecule, the EC50 in test [10] was more than 5000 nM; in [11], more than 5000 nM; in [12], more than 5000 nM; in test [13], 14000 nM.
For `CC(=O)N1CCc2c(sc3nc(SCC(=O)Nc4cccc(C)c4)n(Cc4ccco4)c(=O)c23)C1`, in test [1], the IC50 was 440 nM. Further, the Ratio IC50 in test [3] was determined as 12.
As to `CC(=O)N1CCc2c(sc3nc(SCC(=O)Nc4ccc(F)c(Cl)c4)n(Cc4ccco4)c(=O)c23)C1`, the IC50 came to 740 nM in test [1] and 3800 nM in [2]. Further, the Ratio IC50 in test [3] was determined as 7.
Turning to `CC(=O)N1CCc2c(sc3nc(SCC(=O)Nc4ccccc4Cl)n(Cc4ccco4)c(=O)c23)C1`, the IC50 in test [1] was 100 nM; in test [2], 2800 nM. In addition, in test [3], the Ratio IC50 amounted to 23.
In the case of `CC(=O)N1CCc2c(sc3nc(SCC(=O)Nc4ccc(F)c(F)c4)n(Cc4ccco4)c(=O)c23)C1`, the IC50 in test [1] was determined as 470 nM; in test [2], 4900 nM. The Ratio IC50 in test [3] is 8.
In the case of `CC(=O)N1CCc2c(sc3nc(SCC(=O)Nc4ccc(F)cc4)n(Cc4ccco4)c(=O)c23)C1`, the concentration for half-maximal inhibition (IC50) was 420 nM in [1] and 3600 nM in test [2]. Further, in test [3], the Ratio IC50 turned out to be 7.
For `O=C1c2ccc(Oc3cccc(Oc4ccc5c(c4)C(=O)N(c4ccc(O)cc4)C5=O)c3)cc2C(=O)N1c1ccc(O)cc1`, in test [4], the IC50 was 3200 nM. In test [5], the Ratio IC50 is 0.4.
For the molecule `CC(=O)N1CCc2c(sc3nc(SCC(=O)Nc4ccc(F)cc4F)n(Cc4ccco4)c(=O)c23)C1`, the IC50 in test [1] amounted to 380 nM; in test [2] it was 3500 nM. Besides, the Ratio IC50 in test [3] amounted to 13.
Turning to `Cc1sc2c(c1C)C(c1ccc(Cl)cc1)=N[C@@H](CC(=O)Nc1ccc(O)cc1)c1nnc(C)n1-2` [BIRABRESIB], the Activity result in [9] was “Dose-Dependent Effect”. For the same molecule, the result in [19] was Active. Besides, a half-maximal response in test [13] (EC50) required 80 nM.
Take `COc1ccc(NC(=O)CSc2nc3sc4c(c3c(=O)n2Cc2ccco2)CCN(C(C)=O)C4)cc1`: the IC50 worked out at 570 nM in test [1] and 2200 nM in test [2]. In addition, the Ratio IC50 in test [3] amounted to 6.
With `CC(=O)N1CCc2c(sc3nc(SCC(=O)Nc4ccccc4C)n(Cc4ccco4)c(=O)c23)C1`, the IC50 in [1] was 220 nM; in [2], 3000 nM. In addition, the Ratio IC50 in test [3] is 15.
Consider `COc1cccc(NC(=O)CSc2nc3sc4c(c3c(=O)n2Cc2ccco2)CCN(C(C)=O)C4)c1`, for which the results for the IC50 in test [1] and in [2] were 300 nM and 14000 nM, respectively. In [3], the Ratio IC50 turned out to be 9.
For `CCc1cccc(C)c1NS(=O)(=O)c1cc(-c2c(C)noc2C)ccc1C`, in [4], the IC50 turned out to be 1100 nM. In addition, in test [5], the Ratio IC50 is 7.8.
Taken in the same sequence, the figures for `COc1cc(C(=O)C(=Cc2ccncc2)c2nc3ccccc3o2)cc(OC)c1OC` were 800 nM and 5.4.
